# According to patent publication US7893068B2, “Physiologically active substances” (Mercian Corporation, priority 2002, dated 2011):
# How the values were obtained:
# [1] = system: WiDr human colon cancer cells; test: Growth inhibitory activities on WiDr human colon cancer cells (MTT); assay type: cell-based; conditions: 72 h, three days incubation
# Experimental: WiDr human colon cancer cells cultured in DULBECCO-modified eagle medium (DMEM; manufactured by SIGMA Co., Ltd.) containing 10% fetal calf serum, penicillin (100 unit/mL) and streptomycin (100 μg/mL) were dispensed in 96-well plates by 2×10^3 cells/well. After culturing overnight in a CO2 incubator, 20 μL of the above-mentioned incubation solution containing the test compound diluted with 3-fold succession was added, followed by incubation. After three days, 50 μL of 3.3 mg/mL MTT solution was added, followed by culturing for further one hour. Then, formazan formed by the reduction by the action of living cells was extracted with 100 μL of DMSO, the absorbance (A540/A660) was determined and was set as the index of the number of living cells.
# The concentrations of the compounds of the formula (I) at which the growth of WiDr human colon cancer cells are inhibited 50% were determined.
# [2] = Body weight loss (acute toxicity) in the WiDr tumor model; assay type: in vivo, nude mice; conditions: intravenous 5 consecutive days, body weight relative to Day 1
# Source text: (§1) In order to study solid tumor growth inhibitory activities of the compounds of the formula (I) in vivo, WiDr human colon cancer cells were implanted subcutaneously into the flanks of nude mice. […]. The animals were grouped so that the average of the volumes of the respective groups became uniform, when it reached about 100 mm^3. Control group was made up of 10 mice and 11107D-administering groups were made up of 5 mice. The derivatives were administered for the administering groups for 5 consecutive days by intravenous injection so as to be any of 0.625 mg, 1.25 mg, 2.5 mg, 5 mg and 10 mg/kg/day, and a vehicle was administered to the control group. The tumor volumes on Day 15 were measured, and relative tumor volume ratios (T/C %) were determined setting the tumor volume of the control group as 100%. The body weights on Day 1, Day 5, Day 8, Day 12 and Day 15 (or 16) were measured, and relative body weight variations were determined setting the body weight on Day 1 as 100%. The relative body weight ratios on the day where the body weight reached the minimum were defined as the minimum relative weight ratios and are shown in Table 3.
# [3] = system: WiDr human colon cancer cells; test: Solid tumor growth inhibitory activities, WiDr human colon tumor model in nude mice; assay type: in vivo; conditions: Mus musculus, iv, 360 h, read-out: Growth inhibitory activities in the WiDr human solid tumor model (T/C %)
# Source text: as §1
# [4] = Stability in an aqueous solution (HPLC residual ratio); conditions: for Peak area (mAU × sec) after 24 hours / The residual ratios (%): Britton-Robinson's buffer pH 7, 25° C., 24 hours; for Peak area (mAU × sec) initial: Britton-Robinson's buffer pH 7, before incubation
# Experimental: The compounds of the formula (I) were dissolved in DMSO in concentrations of 10 to 20 mM, and these were diluted about 500 folds with Britton-Robinson's buffer solution of pH 7. Each of the solutions as sample solutions was incubated at 25° C. for 24 hours.
# The sample solutions were analyzed by high performance liquid chromatography before and after incubation, and the residual ratios of the tested substances in the sample solutions after incubation were determined from the peak areas of the obtained chromatograms.
# VEGF promoter = test: VEGF transcription-suppressing activity (VEGF promoter-PLAP reporter, U251/1-8 cells, hypoxia); assay type: cell-based; conditions: Homo sapiens, U-251, 18 h, read-out: VEGF transcription-suppressing activities (IC50: nM)
# Source text: In order to prepare reporter system reflecting transcription from VEGF promoter, VEGF promoter sequence was cloned, and inserted in secretory alkaline phosphatase (PLAP) vector to construct reporter vector.
# In order to obtain the promoter region of human VEGF, VEGF genomic DNA was cloned from phage library. PCR primers having the sequences described in Sequence Numbers 1 and 2 were designed based on VEGF cDNA (GenBank accession number: X62568) and a fragment having about 340 bp was obtained by carrying out PCR. Human genomic phage library (Human genomic library, Clontech Co.) was screened using this as a probe to obtain VEGF genomic DNA. The DNA was digested by EcoRI, and the resultant fragments were inserted in the EcoRI site of pUC18. Finally, pUC18-VEGFA containing about 5.4 kb of VEGF 5′ flanking region was obtained. The pUC18-VEGFA was digested by KpnI/NheI, VEGF promoter region of about 2.3 kb obtained was inserted in the multi cloning site KpnI/NheI of secretory alkaline phosphatase (PLAP) vector (Goto et al, Mol. Pharmacol., 49, 860-873, 1996), and thus, VEGF-PLAP vector was constructed.
# The above-mentioned VEGF-PLAP vector was transfected in the U251 cell cultured in the DULBECCO-modified eagle medium (DMEM; manufactured by SIGMA Co., Ltd.) containing 10% fetal calf serum, and the cells were cultured in the presence of 1 mg/mL G418 (Merck Co.) to establish G418 resistant stable clone (U251/1-8 cell).
# It was confirmed that U251/1-8 cell secreted PLAP under hypoxic condition (2% O2 incubator) in the same manner as in the report (Cell. Mol. Biol. Res. 40, 35-39, 1994) and was a reporter system reflecting the transcription from VEGF promoter. The screening of the compound suppressing VEGF production which was induced by hypoxic stimulation was carried out below using the clone.
# In order to remove the influence of alkaline phosphates in serum, U251/1-8 cells were rinsed twice with the adequate amount of PBS (Phosphate buffered saline), diluted in the DMEM medium containing 10% of serum in which alkaline phosphates was inactivated by the treatment of 65° C. for 20 min., and dispensed in 96-well plates by 4×10^4 cells/180 μL.
# After culturing at 37° C. overnight in a CO2 incubator (5% CO2), 20 μL of the above-mentioned incubation solution containing the test compound diluted with 3-fold succession was added, and then they were incubated in a hypoxic (2% […]) incubator for 18 hours. With respect to the PLAP activity in the culture supernatants, 10 μL of the supernatants was added to 50 μL of 0.28 M Na2CO3—NaHCO3 buffer solution (pH 10.0, 8.0 mM MgSO4), and finally 50 μL of alkaline phosphatase substrate (LUMISTEIN, Genomescience Co.) was added. After reacting for one hour, the alkaline phosphatase activity of the PLAP was measured by detecting the chemical luminescence by a micro plate reader (Perkin-Elmer Co.). The PLAP activity under normoxia was set as 0%, the PLAP activity of cell which was treated under hypoxia was set as 100%, and the concentration suppressing the PLAP activity by 50% was set as the IC50 value of PLAP. The IC50 values of 11107D derivatives shown in Examples were measured, and the IC50 values of representative 11107D derivatives are shown in Table 1.
# [5] = Physico-chemical properties: solubility; assay type: physicochemical
# Experimental: The physico-chemical properties of 11107D are shown below. The structure of 11107D was determined as shown below.
# [6] = system: L-1210 mouse leukemia cell; conditions: L-1210, RPM-1640 medium; cited from earlier work
# P388 mouse leukemia cell [7] = conditions: cited from earlier work
# P388 mouse leukemia cell [8] = conditions: P388, RPM-1640 medium; cited from earlier work
# [9] = system: HL-60 human leukemia cell; conditions: HL-60, RPM-1640 medium; cited from earlier work
smiles,measurement,setting,value
"CCC(O)C(C)C1OC1CC(C)(O)/C=C/C=C(\C)C1OC(=O)CC(O)CCC(C)(OC)C(OC(=O)N2CCC(N3CCCCC3)CC2)/C=C/C1C (stereo not shown) [Compound 109, (8E,12E,14E)-3,16,21-Trihydroxy-6-methoxy-6,10,12,16,20-pentamethyl-7-((4-(piperidin-1-yl)piperidin-1-yl)carbonyl)oxy-18,19-epoxytricosa-8,12,14-trien-11-olide]",IC50,[1],1.5 nM
same,the minimum relative weight ratios,[2]; Dose 0.625 mg/kg,0.89
same,response vs control in vivo at 0.625 mg/kg,[3],36%
same,Peak area (mAU × sec) after 24 hours,[4],2111 mAU × sec
same,The residual ratios (%),[4],94.9%
same,Peak area (mAU × sec) initial,[4],2224 mAU × sec
same,IC50,VEGF promoter,3.3 nM
"CCC(OC)C(C)C1OC1CC(C)(O)/C=C/C=C(\C)C1OC(=O)CC(O)CCC(C)(O)C(OC(=O)N2CCN(C)CC2)/C=C/C1C (stereo not shown) [Compound 131, (8E,12E,14E)-3,6,16-Trihydroxy-21-methoxy-6,10,12,16,20-pentamethyl-7-((4-methylpiperazin-1-yl)carbonyl)oxy-18,19-epoxytricosa-8,12,14-trien-11-olide]",IC50,[1],0.7 nM
same,the minimum relative weight ratios,[2]; Dose 2.5 mg/kg,0.83
same,response vs control in vivo at 2.5 mg/kg,[3],28%
same,Peak area (mAU × sec) after 24 hours,[4],157 mAU × sec
same,The residual ratios (%),[4],93.2%
same,Peak area (mAU × sec) initial,[4],168 mAU × sec
same,IC50,VEGF promoter,1.7 nM
"CCC(O)C(C)C1OC1CC(C)(O)/C=C/C=C(\C)C1OC(=O)CC(O)CCC(C)(O)C(OC(C)=O)/C=C/C1C (stereo not shown) [Compound 11107D, (8E,12E,14E)-7-acetoxy-3,6,16,21-tetrahydroxy-6,10,12,16,20-pentamethyl-18,19-epoxytricosa-8,12,14-trien-11-olide]",Solubility in organic solvents,"[5]; dimethyl sulfoxide, pyridine, methanol and acetone",soluble
same,Solubility in water,[5]; water,slightly soluble
same,Peak area (mAU × sec) after 24 hours,[4],3817 mAU × sec
same,The residual ratios (%),[4],95.6%
same,Peak area (mAU × sec) initial,[4],3994 mAU × sec
same,Stability in an aqueous solution,[4],stable even in an aqueous solution
"CCC(OC)C(C)C1OC1C(O)C(C)/C=C/C=C(\C)C1OC(=O)CC(O)CCC(C)(O)C(OC(C)=O)/C=C/C1C (stereo not shown) [FD895, reference compound]",in vitro cell growth inhibitory activities,[6],has in vitro cell growth inhibitory activities
same,antitumor activities in an in vivo experiment,P388 mouse leukemia cell [7],did not show antitumor activities
same,in vitro cell growth inhibitory activities,P388 mouse leukemia cell [8],has in vitro cell growth inhibitory activities
same,in vitro cell growth inhibitory activities,[9],has in vitro cell growth inhibitory activities
same,Peak area (mAU × sec) after 24 hours,[4],993 mAU × sec
same,The residual ratios (%),[4],83%
same,Peak area (mAU × sec) initial,[4],1197 mAU × sec
same,Stability in an aqueous solution,[4],unstable in an aqueous solution
